In data set [1] the target is T1, Aβ(1-40) (Homo sapiens, UniProt P05067).
T1 construct: […]; purchased Bachem, Torrance, Calif
Briefly: BASST (Beta-Amyloid Self-Seeding, Thioflavin T), inhibitors of self-seeded amyloid fibril growth. As to conditions: 30 μM soluble Aβ(1-40), 37° C., 3 to 5 hours, thioflavin T fluorescence; replicate values; letter = synthetic lot; read-out: BASST (IC50 = μM). Format: biochemical. The procedure, abridged:
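Self-seeded Aβ(1-40) fibril growth was run in 50 mM sodium phosphate pH 7.5, 100 mM NaCl, 0.02% NaN3, 1 M urea. Compounds were tested in 3-fold serial dilutions (top 100 μM final): 10 min on ice, then 3–5 h at 37 °C. Fibrils were read by 5 μM thioflavin T fluorescence (ex 440/em 485 nm).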

Another data set has as its target T2, Aβ (1-42) (Homo sapiens, UniProt P05067).
T2 construct: Required Aβ (1-42) (California Peptide) was dried from its hexafluoroisopropanol (HFIP) stock solution; purchased California Peptide
Briefly: BATYM assay (Aβ (1-42) aggregation, Thioflavin T fluorescence). In kind it is biochemical. To be noted: Aβ 1-42 final concentration 100 μM, 37° C., 1 day, letter = synthetic lot. The procedure, abridged: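 Aβ (1-42) (100 μM final, PBS pH 7.4 from DMSO) incubated with compound at 37° C. for 1 day. Aggregation read by ThT (30 μM, glycine-NaOH pH 8.5) fluorescence, ex 440/em 485 nm; inhibition as fluorescence reduction corrected for compound-alone signal, IC50 by curve fitting from two experiments in triplicate.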

The target of the next data set is T3, Aβ (1-40) peptide (Homo sapiens, UniProt P05067).
T3 construct: 10 μL 0.5 mg/mL Aβ (1-40) peptide in 20% HFIP
T3 sequence (P05067 672-711 limits assumed): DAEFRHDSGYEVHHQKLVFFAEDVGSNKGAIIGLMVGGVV
Briefly: BAPA (Beta-Amyloid Peptide Aggregation, pH 6.0, filtration). To be noted: Aβ (1-40) 33 μM, pH 6.0, 2 to 4 hours at room temperature; replicate values; letter = synthetic lot. In kind it is biochemical. The procedure, abridged: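 Aggregation of human Aβ (1-40) peptide was measured in an endpoint filtration assay. The peptide was first reduced to monomer with hexafluoroisopropanol (HFIP), then used at 33 μM so it would aggregate at pH 6.0, and incubated for 2 to 4 hours at room temperature. Filter plates were washed with 100 μL phosphate buffer, impregnated with Meltilex, and counted on a Microbeta counter with background correction.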

Data set [2] addresses T1, Aβ(1-40). Briefly: BASSR (Beta-Amyloid Self-Seeding Radioassay), inhibitors of self-seeded amyloid fibril growth. In kind it is biochemical. As to conditions: 30 μM soluble Aβ(1-40) + 125I-labeled Aβ(1-40), 37° C., 3 to 5 hours; replicate values; letter = synthetic lot; ppt = precipitate; V-shaped = inhibition followed by precipitation. The procedure, abridged:
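Self-seeded growth of ^125I-labeled Aβ(1-40) fibrils in 50 mM sodium phosphate pH 7.5, 100 mM NaCl, 0.02% NaN3, 1 M urea; compound (3-fold dilutions from 100 μM final) preincubated 10 min on ice, then 3–5 h at 37° C. Fibrils collected by vacuum filtration on 0.2 μm filters and counted for radioactivity.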

Several values for one entry are separate records, joined by “and”; a condition that tells them apart may be missing. Identical values can stand only once.

T1 sequence (P05067 672-711 limits assumed): as above
T2 sequence (P05067 672-713 limits assumed): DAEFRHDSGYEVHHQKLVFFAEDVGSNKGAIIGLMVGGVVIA

Broadly, the IC50 is the concentration that gives 50% inhibition. For orientation: melting point means the temperature of the solid-liquid transition. For `O=C(O)c1cc([N+](=O)[O-])ccc1Nc1ccc(CCc2ccc(Cl)c(Cl)c2)cc1` [Example 2, 2-{4-[2-(3,4-Dichloro-phenyl)-ethyl]phenylamino}-5-nitrobenzoic acid], the melting point lay within 214 to 217 °C. Further, the IC50 on Aβ(1-40) [1] was 1 µM and 1.5 µM. This molecule had an IC50 against Aβ (1-42) of 6.52 µM. On Aβ (1-40) peptide, this molecule gave an IC50 of 70 µM. Moreover, the IC50 at Aβ(1-40) [2] was 2.2 µM and 4.1 µM (2×) and 12 µM and 4.5 µM.

Molecule `COc1cc(Nc2ccc(CCc3ccc(Cl)c(Cl)c3)cc2)c(C(=O)O)cc1[N+](=O)[O-]` [Example 3, 2-{4-[4-(3,4-Dichloro-phenyl)-ethyl]phenylamino}-4-methoxy-5-nitrobenzoic acid] had a melting point of 208 to 209 °C. For the same molecule, the IC50 on Aβ(1-40) [1] was 2 µM and 3 µM. The same molecule returned an IC50 against Aβ (1-42) of 11.7 µM. Further, the IC50 on Aβ (1-40) peptide was greater than 60 µM. The concentration for half-maximal inhibition (IC50) at Aβ(1-40) [2] is 4.5 µM and 5 µM (3×) and 15 µM.

Molecule `O=C(O)c1ccccc1Nc1ccc(CCc2ccc(O)c(O)c2)cc1` [Example 4, 2-{4-[2-(3,4-Dihydroxy-phenyl)-ethyl]-phenylamino}benzoic acid] yielded a melting point of 215 to 217 °C. For the same molecule, the IC50 on Aβ(1-40) [1] is 3 µM and 4 µM and 8 µM. Moreover, the IC50 on Aβ (1-42) was 26.3 µM and 30.7 µM. The molecule also registered an IC50 at Aβ (1-40) peptide of 67 µM. Further, on Aβ(1-40) [2], the half-inhibitory concentration (IC50) was 30 µM and > 100 µM.

The molecule `CCCCN(CCCC)c1ccc(CCc2ccc(Nc3ccccc3C(=O)O)cc2)cc1` [Example 5, 2-{4-[2-(4-Dibutylamino-phenyl)-ethyl]phenylamino}benzoic acid] gave a melting point of 115 to 117 °C. The IC50 on Aβ(1-40) [1] turned out to be 4.5 µM. This molecule gave an IC50 against Aβ (1-42) of 10 µM. Moreover, on Aβ (1-40) peptide, the midpoint of inhibition, the IC50, lay at 74 µM. For the same molecule, at Aβ(1-40) [2], the IC50 is 70 µM and > 100 µM.

As for `O=C(O)c1ccccc1Nc1ccc(CCCc2ccc(Cl)c(Cl)c2)cc1` [Example 9, 2-{4-[3-(3,4-Dichlorophenyl)-propyl]phenylamino}-benzoic acid], the melting point lay within 120 to 126 °C. The half-maximal inhibitory concentration (IC50) on Aβ(1-40) [1] is 1 µM and 2 µM. At Aβ (1-42), the IC50 is 20.1 µM and 28.2 µM and 38.6 µM. On Aβ (1-40) peptide, the midpoint of inhibition, the IC50, lay at 75 µM. The IC50 on Aβ(1-40) [2] was 20 µM and 30 µM and 52 µM and 40 µM.

Take `O=C(O)c1cc([N+](=O)[O-])ccc1Nc1ccc(CCCCCc2ccc(Cl)c(Cl)c2)cc1` [Example 13, 2-{4-[5-(3,4-Dichlorophenyl)pentyl]phenylamino}-5-nitrobenzoic acid]: the melting point lay within 147 to 148 °C. The concentration for half-maximal inhibition (IC50) on Aβ(1-40) [1] came to 0.9 µM. Besides, 6.41 µM corresponded to half-maximal inhibition against Aβ (1-42) (IC50). On Aβ (1-40) peptide, this molecule showed an IC50 of 6 µM. The IC50 on Aβ(1-40) [2] is 21 µM and > 100 µM (2×) and 20 µM and 15 µM.

With `O=C(O)c1cc([N+](=O)[O-])ccc1Nc1ccc(CCCc2ccc(Cl)c(Cl)c2)cc1` [Example 15, 2-{4-[3-(3,4-Dichlorophenyl)propyl]phenylanino}-5-nitrobenzoic acid], the melting point is 153 to 155 °C. Further, the IC50 at Aβ(1-40) [1] is 1 µM and 1.2 µM. Moreover, the IC50 against Aβ (1-42) is 8.52 µM and 7.26 µM and 7.07 µM. In addition, on Aβ (1-40) peptide, the IC50 was > 60 µM and 7 µM. In addition, the IC50 on Aβ(1-40) [2] was 16 µM and 12 µM and 15 µM and 11 µM.

In the case of `O=C(O)c1ccccc1Nc1ccc(-c2ccc(Cl)c(Cl)c2)cc1` [Example 18, 2-[4-(3,4-Dichlorophenyl)phenylamino]benzoic acid], the melting point was greater than 220 °C. The IC50 at Aβ(1-40) [1] was 30 µM and > 100 µM. Besides, the IC50 at Aβ (1-42) is greater than 100 µM. For the same molecule, at Aβ (1-40) peptide, the IC50 is 9 µM and > 40 µM and 53 µM and 12 µM. Moreover, the IC50 at Aβ(1-40) [2] was greater than 100 µM.

For `O=C(O)c1ccccc1Nc1ccc(CCCc2ccc([N+](=O)[O-])cc2)cc1` [Example 20, 2-{4-[3-(4-Nitrophenyl)propyl]phenylamino}benzoic acid], the melting point was in the range of 150 to 153 °C. Further, the IC50 at Aβ(1-40) [1] was found to be 6 µM. Further, on Aβ (1-42), it took 68.6 µM to reach half-maximal inhibition (IC50). At Aβ (1-40) peptide, half-maximal inhibition (IC50) required 22 µM. The IC50 on Aβ(1-40) [2] stood at 4.2 µM.

`O=C(O)c1ccccc1Nc1ccc(CCCc2cccc([N+](=O)[O-])c2)cc1` [Example 21, 2-{4-[3-(3-Nitrophenyl)propyl]phenylamino}benzoic acid] gave a melting point of 164 to 167 °C. Moreover, the IC50 on Aβ(1-40) [1] was found to be 4 µM. Further, at Aβ (1-42), it took 62.7 µM to reach half-maximal inhibition (IC50). The same molecule gave an IC50 at Aβ (1-40) peptide of 26 µM. Moreover, the IC50 on Aβ(1-40) [2] turned out to be 3 µM.

With `Nc1ccc(CCc2ccc(Nc3ccccc3C(=O)O)cc2)cc1` [Example 24], the melting point was 198 to 201 °C. Besides, the IC50 at Aβ(1-40) [1] amounted to 20 µM. The IC50 against Aβ (1-42) was greater than 100 µM. Further, at Aβ (1-40) peptide, the half-maximal inhibitory concentration (IC50) is 91 µM. Besides, at Aβ(1-40) [2], the IC50 was greater than 100 µM.

`CCCN(CCC)c1ccc(CCc2ccc(Nc3ccccc3C(=O)O)cc2)cc1.Cl` [Example 25, 2-{4-[2-(4-Dipropylaminophenyl)ethyl]phenylamino}benzoic acid monohydrochloride] came in with a melting point of 176 to 177 °C. Further, the IC50 on Aβ(1-40) [1] came out at 4 µM. Moreover, inhibition against Aβ (1-42) was half-maximal at 21.1 µM (IC50). The midpoint of inhibition on Aβ (1-40) peptide, the IC50, lay at 47 µM. In addition, on Aβ(1-40) [2], the IC50 is greater than 100 µM.

As for `CN(C)c1cccc(CCCc2ccc(Nc3ccccc3C(=O)O)cc2)c1` [Example 28, 2-{4-[3-(3-Dimethylaminophenyl)propyl]phenylamino}benzoic acid], the melting point was in the range of 115 to 117 °C. For the same molecule, the IC50 at Aβ(1-40) [1] is 5 µM. Also, the IC50 against Aβ (1-42) was found to be 42.3 µM. The same molecule returned an IC50 on Aβ (1-40) peptide of 27 µM. Besides, the IC50 at Aβ(1-40) [2] is greater than 100 µM.

Molecule `CCNc1ccc(CCCc2ccc(Nc3ccccc3C(=O)O)cc2)cc1` [Example 29, 2-{4-[3-(4-Ethylaminophenyl)propyl]phenylamino}benzoic acid] had a melting point of 133 °C. Also, the IC50 on Aβ(1-40) [1] amounted to 4 µM. Also, on Aβ (1-42), the IC50 stood at 38.1 µM. Moreover, inhibition against Aβ (1-40) peptide was half-maximal at 30 µM (IC50). Further, the IC50 at Aβ(1-40) [2] was greater than 100 µM.

Regarding `O=C(O)c1ccccc1Nc1ccc(CCc2cccc(N(Cc3ccccc3)Cc3ccccc3)c2)cc1` [Example 31, 2-{4-[2-(3-Dibenzylaminophenyl)ethyl]phenylamino}benzoic acid], the melting point was in the range of 95.5 to 97.5 °C. In addition, the IC50 on Aβ(1-40) [1] was 1 µM. The same molecule came in with an IC50 against Aβ (1-42) of 22.6 µM. Besides, the 50% inhibitory concentration (IC50) against Aβ (1-40) peptide is 86 µM. Besides, the IC50 on Aβ(1-40) [2] is greater than 100 µM.

For the molecule `Nc1cccc(CCc2ccc(Nc3ccccc3C(=O)O)cc2)c1` [Example 33, 2-{4-[2-(3-Aminophenyl)ethyl]phenylamino}benzoic acid], the melting point lay in the range of 182 to 184 °C. Besides, the IC50 at Aβ(1-40) [1] was greater than 100 µM. Further, the IC50 against Aβ (1-42) was greater than 100 µM. The molecule further came in with a half-inhibitory concentration (IC50) at Aβ (1-40) peptide greater than 10 µM. Besides, at Aβ(1-40) [2], the IC50 was greater than 100 µM.

Take `CC(=O)Nc1cccc(CCc2ccc(Nc3ccccc3C(=O)O)cc2)c1` [Example 36, 2-{4-[2-(3-Acetylaminopheny)ethyl]phenylamino}benzoic acid]: the melting point was 213 to 215 °C. The IC50 on Aβ(1-40) [1] is greater than 100 µM. For the same molecule, on Aβ (1-42), the IC50 was greater than 100 µM. For the same molecule, half-maximal inhibition against Aβ (1-40) peptide (IC50) required 149 µM. The IC50 at Aβ(1-40) [2] is greater than 100 µM.

Molecule `O=C(O)c1ccccc1Nc1ccc(CCc2ccc(-c3ccccc3)cc2)cc1` [Example 129, 2-[4-(2-Biphenyl-4-yl-ethyl)-phenylamino]-benzoic acid] returned a melting point of 200 to 202 °C. Besides, the IC50 at Aβ(1-40) [1] was 10 µM and 3 µM and 2 µM (2×). In addition, at Aβ (1-42), the IC50 was greater than 100 µM. In addition, the IC50 against Aβ (1-40) peptide is greater than 102 µM.

(Values after patent publication US6972287B1, “Method of inhibiting amyloid protein aggregation and imaging amyloid deposits” (Pfizer Inc., priority 1999, dated 2005).)
